Key:
Assay in all cases: relative viability (nuclei count vs DMSO), 5 days (fraction); higher = more cells survive
[1] = tested on: NCI-H2085
In short: (§1)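 Values are medians from duplicate plates. Each reflects relative viability, defined as the nuclei count of treated wells over that of vehicle wells. Lung cancer cell lines in 1536-well plates were pin-tool dosed one day after seeding with one drug alone or with a fixed anchor-drug dose plus five library-drug doses (not always all listed) in √10 steps, then fixed, stained and imaged at 4× after 5 days.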

[2] = tested on: NCI-H1563
In short: as §1

[3] = tested on: NCI-H1944
In short: as §1

[4] = tested on: LU99A
In short: as §1

[5] = tested on: HCC-827
In short: as §1

[6] = tested on: EPLC-272H
In short: as §1

[7] = tested on: NCI-H2023
In short: as §1

[8] = tested on: SK-MES-1
In short: as §1

[9] = tested on: EMC-BAC-2
In short: as §1

[10] = tested on: NCI-H2405
In short: as §1

[11] = tested on: COR-L23
In short: as §1

[12] = tested on: NCI-H2087
In short: as §1

[13] = tested on: ChaGo-K-1
In short: as §1

[14] = tested on: NCI-H838
In short: as §1

[15] = tested on: NCI-H1651
In short: as §1

[16] = tested on: HCC-44
In short: as §1

[17] = tested on: LCLC-103H
In short: as §1

[18] = tested on: NCI-H520
In short: as §1

[19] = tested on: NCI-H1793
In short: as §1

[20] = tested on: NCI-H1395
In short: as §1

[21] = tested on: NCI-H650
In short: as §1

[22] = tested on: H3255
In short: as §1

CC(=O)O[C@@]12CO[C@@H]1C[C@H](O)[C@@]1(C)C(=O)[C@H](O)C3=C(C)[C@@H](OC(=O)[C@H](O)[C@@H](NC(=O)OC(C)(C)C)c4ccccc4)C[C@@](O)([C@@H](OC(=O)c4ccccc4)[C@H]21)C3(C)C [Docetaxel] + Nc1nc2[nH]cc(CCc3ccc(C(=O)N[C@@H](CCC(=O)O)C(=O)O)cc3)c2c(=O)[nH]1 [Pemetrexed] (partner 0.2 µM)
relative viability ([1]; first compound 0.0002 µM): 0.84 | relative viability ([1]; first compound 0.000632 µM): 0.902 | relative viability ([1]; first compound 0.002 µM): 0.552 | relative viability ([1]; first compound 0.006325 µM): 0.545 | relative viability ([1]; first compound 0.02 µM): 0.301 | relative viability ([2]; first compound 0.0002 µM): 0.701 | relative viability ([2]; first compound 0.000632 µM): 0.843 | relative viability ([2]; first compound 0.002 µM): 0.69 | relative viability ([2]; first compound 0.006325 µM): 0.608 | relative viability ([2]; first compound 0.02 µM): 0.374 | relative viability ([3]; first compound 0.0002 µM): 0.619 | relative viability ([3]; first compound 0.000632 µM): 0.568 | relative viability ([3]; first compound 0.002 µM): 0.521 | relative viability ([3]; first compound 0.006325 µM): 0.248 | relative viability ([3]; first compound 0.02 µM): 0.118 | relative viability ([4]; first compound 0.0002 µM): 0.208 | relative viability ([4]; first compound 0.000632 µM): 0.201 | relative viability ([4]; first compound 0.002 µM): 0.217 | relative viability ([4]; first compound 0.006325 µM): 0.207 | relative viability ([4]; first compound 0.02 µM): 0.19 | relative viability ([5]; first compound 0.0002 µM): 0.183 | relative viability ([5]; first compound 0.000632 µM): 0.282 | relative viability ([5]; first compound 0.006325 µM): 0.238 | relative viability ([5]; first compound 0.02 µM): 0.215 | relative viability ([6]; first compound 0.0002 µM): 0.298 | relative viability ([6]; first compound 0.000632 µM): 0.187 | relative viability ([6]; first compound 0.002 µM): 0.139 | relative viability ([6]; first compound 0.006325 µM): 0.0965 | relative viability ([6]; first compound 0.02 µM): 0.111 | relative viability ([7]; first compound 0.0002 µM): 0.208 | relative viability ([7]; first compound 0.000632 µM): 0.197 | relative viability ([7]; first compound 0.002 µM): 0.144 | relative viability ([7]; first compound 0.006325 µM): 0.124 | relative viability ([7]; first compound 0.02 µM): 0.0817 | relative viability ([8]; first compound 0.0002 µM): 0.971 | relative viability ([8]; first compound 0.000632 µM): 0.907 | relative viability ([8]; first compound 0.002 µM): 0.499 | relative viability ([8]; first compound 0.006325 µM): 0.341 | relative viability ([8]; first compound 0.02 µM): 0.197 | relative viability ([9]; first compound 0.0002 µM): 0.461 | relative viability ([9]; first compound 0.000632 µM): 0.462 | relative viability ([9]; first compound 0.002 µM): 0.464 | relative viability ([9]; first compound 0.006325 µM): 0.361 | relative viability ([9]; first compound 0.02 µM): 0.358 | relative viability ([10]; first compound 0.0002 µM): 1.01 | relative viability ([10]; first compound 0.000632 µM): 0.754 | relative viability ([10]; first compound 0.002 µM): 0.671 | relative viability ([10]; first compound 0.006325 µM): 0.405 | relative viability ([10]; first compound 0.02 µM): 0.389 | relative viability ([11]; first compound 0.0002 µM): 0.189 | relative viability ([11]; first compound 0.000632 µM): 0.184 | relative viability ([11]; first compound 0.002 µM): 0.186 | relative viability ([11]; first compound 0.006325 µM): 0.167 | relative viability ([12]; first compound 0.0002 µM): 0.553 | relative viability ([12]; first compound 0.000632 µM): 0.509 | relative viability ([12]; first compound 0.002 µM): 0.24 | relative viability ([12]; first compound 0.006325 µM): 0.168 | relative viability ([12]; first compound 0.02 µM): 0.104 | relative viability ([13]; first compound 0.0002 µM): 0.269 | relative viability ([13]; first compound 0.000632 µM): 0.269 | relative viability ([13]; first compound 0.002 µM): 0.276 | relative viability ([13]; first compound 0.006325 µM): 0.268 | relative viability ([13]; first compound 0.02 µM): 0.181 | relative viability ([14]; first compound 0.0002 µM): 0.247 | relative viability ([14]; first compound 0.000632 µM): 0.27 | relative viability ([14]; first compound 0.002 µM): 0.22 | relative viability ([14]; first compound 0.006325 µM): 0.157 | relative viability ([14]; first compound 0.02 µM): 0.134 | relative viability ([15]; first compound 0.0002 µM): 0.443 | relative viability ([15]; first compound 0.000632 µM): 0.593 | relative viability ([15]; first compound 0.002 µM): 0.447 | relative viability ([15]; first compound 0.006325 µM): 0.175 | relative viability ([16]; first compound 0.0002 µM): 0.627 | relative viability ([16]; first compound 0.000632 µM): 0.644 | relative viability ([16]; first compound 0.002 µM): 0.628 | relative viability ([16]; first compound 0.006325 µM): 0.602 | relative viability ([16]; first compound 0.02 µM): 0.491 | relative viability ([17]; first compound 0.0002 µM): 0.495 | relative viability ([17]; first compound 0.000632 µM): 0.54 | relative viability ([17]; first compound 0.002 µM): 0.515 | relative viability ([17]; first compound 0.006325 µM): 0.6 | relative viability ([17]; first compound 0.02 µM): 0.492 | relative viability ([18]; first compound 0.0002 µM): 0.691 | relative viability ([18]; first compound 0.000632 µM): 0.471 | relative viability ([18]; first compound 0.002 µM): 0.316 | relative viability ([18]; first compound 0.006325 µM): 0.207 | relative viability ([18]; first compound 0.02 µM): 0.159 | relative viability ([19]; first compound 0.0002 µM): 0.842 | relative viability ([19]; first compound 0.000632 µM): 0.603 | relative viability ([19]; first compound 0.002 µM): 0.251 | relative viability ([19]; first compound 0.006325 µM): 0.271 | relative viability ([19]; first compound 0.02 µM): 0.188 | relative viability ([20]; first compound 0.0002 µM): 0.814 | relative viability ([20]; first compound 0.000632 µM): 0.706 | relative viability ([20]; first compound 0.002 µM): 0.652 | relative viability ([20]; first compound 0.006325 µM): 0.342 | relative viability ([20]; first compound 0.02 µM): 0.246 | relative viability ([21]; first compound 0.0002 µM): 0.941 | relative viability ([21]; first compound 0.000632 µM): 0.44 | relative viability ([21]; first compound 0.002 µM): 0.393 | relative viability ([21]; first compound 0.006325 µM): 0.237 | relative viability ([21]; first compound 0.02 µM): 0.198 | relative viability ([22]; first compound 0.0002 µM): 0.494 | relative viability ([22]; first compound 0.000632 µM): 0.595 | relative viability ([22]; first compound 0.002 µM): 0.437 | relative viability ([22]; first compound 0.006325 µM): 0.368 | relative viability ([22]; first compound 0.02 µM): 0.359

— the supplement of paper PMC10307832
